Reference: patent US20250076288A1, “STABILIZED PEPTIDES FOR BIOMARKER DETECTION” (Dana-Farber Cancer Institute, Inc., priority 2018, published 2025)
Bridges are numbered along the chain shown (N, C = ends). Where no end group is shown, it is not given here. [ ]: non-standard residue; d: D form. The star is where a group is joined. Biotin = O=C1N[C@H]2[C@H](CS[C@H]2CCCCC(=O)*)N1; S5 = C=CCCC[C@](C)(N)C(=O)O; Nle = CCCC[C@H](N)C(=O)O

Legend:
actin [1] = assay: Visualization of actin in U2OS cells with TAMRA- and biotin-labeled stapled peptides; assay type: cell-based
actin filaments [2] = assay: Staple scan of TAMRA-tagged stapled Abp140 peptides: actin binding over time by fluorescence microscopy in C2C12 cells; assay type: cell-based; conditions: C2C12 mouse myoblast cells, TAMRA-tagged peptides (b)-(g) compared
Source text: As a proof of concept, hydrocarbon staples were introduced at different locations in a peptide with known binding attributes for a target protein in order to identify stapled peptides with enhanced stability, cell penetrance, and that retain or enhance target binding. As shown in FIG. 1 (row (a)), a peptide composed of 17 amino acids from the N-terminus of the S. cerevisiae Abp 140 protein that binds to actin filaments was chosen for modification. In the native protein, this peptide has an alpha-helical structure that is a recognition motif for actin. At least one all-hydrocarbon staple was introduced at various locations of the peptide to stabilize the alpha-helical recognition motif to produce stapled peptides markers for actin (see rows (b)-(g) in FIG. 1; the location of hydrocarbon staples in the peptide sequence is demarcated by an X, wherein X is(S)-2-(4′-pentenyl)alanine). […] After 3 hours of incubation, cells were washed with PBS to remove extra peptide reagent and fluorescence microscopy was then used to assess actin binding by the peptides, and to determine overall peptide stability. […] The stapled peptide that retained actin binding over the longest period of time, as determined by fluorescence in cells, was selected as having hydrocarbon staple(s) at the optimal sequence locations for improving peptide stability for biomarker detection.

actin [3] = assay: Labeling of actin in live zebrafish, confocal microscopy; assay type: in vivo; conditions: 10 μM, room temperature, 2 hours, then 50 μM chloroquine for 30 minutes; skin; FIG. 9
Procedure: In a further application, a lead TAMRA-labeled stapled actin-binding peptide was incubated with live zebrafish (10 μM, room temperature, 2 hours), followed by treatment with 50 μM chloroquine for 30 minutes to achieve complete endosomal release and was immediately imaged by confocal microscopy (FIG. 9).

actin [4] = assay: Actin visualization in fixed murine tissues; assay type: cell-based, mouse; conditions: fixed murine heart, lower extremity and tongue, FIG. 5
actin filaments [5] = assay: Labeling of actin filaments in live C2C12 cells, confocal microscopy; assay type: cell-based, mouse; conditions: 10 μM, room temperature, 2 hours, then 50 μM chloroquine for 30 minutes
Procedure: To determine if stabilized peptides can be used to detect biomarkers in live cells, stapled peptide (g) (see FIG. 1, row (g)) was used to label actin filaments in mouse myoblast cells (C2C12 cell line, ATCC® CRL-1772™). Initially, cells were seeded at a density of 10,000 cells/well in 96 well plates in DMEM media and incubated overnight at 37° C. […] After washing the cells with phosphate-buffered saline (PBS), Hoechst DNA dye was then added to the cells, which were further incubated at room temperature for 30 minutes before being washed again to remove extra dye. Afterwards, confocal microscopy was used to determine the intracellular localization of the fluorescent-tagged stapled peptide.
This technology can be applied for, e.g., to FACS and other fluorescent high-throughput screening methods to for example detect overexpression of biomarkers in fixed and living cells.

actin filaments [6] = assay: Labeling of actin filaments in fixed C2C12 cells, confocal microscopy; assay type: cell-based, mouse
Procedure: Stapled peptide (g) was also used to detect actin filaments in fixed C2C12 cells. Cells were seeded in 96 well plates at a density of 10,000 cells/well in DMEM media and incubated overnight at 37° C. The cells were fixed using 4% paraformaldehyde in PBS for 20 minutes and then permeabilized using 0.3% Triton-X100 in PBS for 10 minutes. This was followed by the addition of Hoechst DNA dye to the cells to stain nuclei, and FITC-phalloidin (Acti-stain™ 488 phalloidin, Cat. #PHDG1-A, Cytoskeleton, Inc.) to label F actin. After rinsing the cells with PBS, serial dilutions of each peptide were transferred to the cells, and the cells were incubated at 37° C. for 30 minutes. Confocal microscopy was then used to detect the cellular localization of the stapled peptide (g) fused to a fluorescent tag.

## (h): stapled actin-binding peptide with alanine substitution and Lysine(Biotin) ([Nle]GVADLIKKFE[S5]IAK[S5]EK(Biotin); staple 12-16; not fully specified)
Actin [1]; biotin label, fixed cells, FIG. 4B
  actin detection in U2OS cells, indirect detection with fluorescently-labeled streptavidin: robust actin detection was observed

## peptide (f): hydrocarbon-stapled Abp140 N-terminal 17-mer, TAMRA-tagged; selected as most stable stapled peptide marker for actin ([Nle]GVADLIKKFE[S5]ISK[S5]EK(TAMRA); staple 12-16)
Actin filaments [2]
  period of time over which actin binding is retained, as determined by fluorescence in cells: exhibited actin binding for the longest period of time

## peptide (g): peptide (f) with a serine to alanine substitution (S14A); Lysine(TAMRA)-tagged stapled actin-binding peptide ([Nle]GVADLIKKFE[S5]IAK[S5]EK(TAMRA); staple 12-16)
Actin [3]
  labeling of actin in live zebrafish: can label actin in the skin of live zebrafish
Actin [4]
  actin visualization in mouse tissues: robust actin visualization in heart, lower extremity, and tongue specimens
Actin filaments [5]
  cell entry and labeling of actin filaments in live cells: entered live cells and selectively bound to and labeled actin filaments
Actin filaments [6]; C2C12 cells fixed with 4% paraformaldehyde, permeabilized with 0.3% Triton-X100, confocal microscopy
  labeling of actin filaments in fixed cells: selectively bound to and labeled actin filaments
Actin filaments [6]; fixed C2C12 cells
  co-localization with the FITC-phalloidin-labeled actin filament network: co-localized with the actin filament network
Actin [1]; TAMRA label, FIG. 4A
  actin detection in U2OS cells, direct fluorescence detection: robust actin detection was observed
